Reference: patent US10125098B2, “Therapeutic compounds and methods of use thereof” (GENENTECH, INC., priority 2014, dated 2018)
pIC50: −log10 of the molar value. Like-named read-outs stand apart in the source and are kept apart here.

How the values were obtained:
hNav1.7 = target: T1, hNav1.7 (Homo sapiens, UniProt Q15858); test: Tritiated compound binding (LBA) to membranes from cells expressing hNav1.7 and the β1 subunit, competitive binding; details: competitive binding vs 100 pM [3H]compound, 18 h, room temperature, membranes with hNav1.7 and β1 subunit
T1 construct: expressed in transfected cells
T1 sequence (Q15858 1-1977 isoform Q15858-3): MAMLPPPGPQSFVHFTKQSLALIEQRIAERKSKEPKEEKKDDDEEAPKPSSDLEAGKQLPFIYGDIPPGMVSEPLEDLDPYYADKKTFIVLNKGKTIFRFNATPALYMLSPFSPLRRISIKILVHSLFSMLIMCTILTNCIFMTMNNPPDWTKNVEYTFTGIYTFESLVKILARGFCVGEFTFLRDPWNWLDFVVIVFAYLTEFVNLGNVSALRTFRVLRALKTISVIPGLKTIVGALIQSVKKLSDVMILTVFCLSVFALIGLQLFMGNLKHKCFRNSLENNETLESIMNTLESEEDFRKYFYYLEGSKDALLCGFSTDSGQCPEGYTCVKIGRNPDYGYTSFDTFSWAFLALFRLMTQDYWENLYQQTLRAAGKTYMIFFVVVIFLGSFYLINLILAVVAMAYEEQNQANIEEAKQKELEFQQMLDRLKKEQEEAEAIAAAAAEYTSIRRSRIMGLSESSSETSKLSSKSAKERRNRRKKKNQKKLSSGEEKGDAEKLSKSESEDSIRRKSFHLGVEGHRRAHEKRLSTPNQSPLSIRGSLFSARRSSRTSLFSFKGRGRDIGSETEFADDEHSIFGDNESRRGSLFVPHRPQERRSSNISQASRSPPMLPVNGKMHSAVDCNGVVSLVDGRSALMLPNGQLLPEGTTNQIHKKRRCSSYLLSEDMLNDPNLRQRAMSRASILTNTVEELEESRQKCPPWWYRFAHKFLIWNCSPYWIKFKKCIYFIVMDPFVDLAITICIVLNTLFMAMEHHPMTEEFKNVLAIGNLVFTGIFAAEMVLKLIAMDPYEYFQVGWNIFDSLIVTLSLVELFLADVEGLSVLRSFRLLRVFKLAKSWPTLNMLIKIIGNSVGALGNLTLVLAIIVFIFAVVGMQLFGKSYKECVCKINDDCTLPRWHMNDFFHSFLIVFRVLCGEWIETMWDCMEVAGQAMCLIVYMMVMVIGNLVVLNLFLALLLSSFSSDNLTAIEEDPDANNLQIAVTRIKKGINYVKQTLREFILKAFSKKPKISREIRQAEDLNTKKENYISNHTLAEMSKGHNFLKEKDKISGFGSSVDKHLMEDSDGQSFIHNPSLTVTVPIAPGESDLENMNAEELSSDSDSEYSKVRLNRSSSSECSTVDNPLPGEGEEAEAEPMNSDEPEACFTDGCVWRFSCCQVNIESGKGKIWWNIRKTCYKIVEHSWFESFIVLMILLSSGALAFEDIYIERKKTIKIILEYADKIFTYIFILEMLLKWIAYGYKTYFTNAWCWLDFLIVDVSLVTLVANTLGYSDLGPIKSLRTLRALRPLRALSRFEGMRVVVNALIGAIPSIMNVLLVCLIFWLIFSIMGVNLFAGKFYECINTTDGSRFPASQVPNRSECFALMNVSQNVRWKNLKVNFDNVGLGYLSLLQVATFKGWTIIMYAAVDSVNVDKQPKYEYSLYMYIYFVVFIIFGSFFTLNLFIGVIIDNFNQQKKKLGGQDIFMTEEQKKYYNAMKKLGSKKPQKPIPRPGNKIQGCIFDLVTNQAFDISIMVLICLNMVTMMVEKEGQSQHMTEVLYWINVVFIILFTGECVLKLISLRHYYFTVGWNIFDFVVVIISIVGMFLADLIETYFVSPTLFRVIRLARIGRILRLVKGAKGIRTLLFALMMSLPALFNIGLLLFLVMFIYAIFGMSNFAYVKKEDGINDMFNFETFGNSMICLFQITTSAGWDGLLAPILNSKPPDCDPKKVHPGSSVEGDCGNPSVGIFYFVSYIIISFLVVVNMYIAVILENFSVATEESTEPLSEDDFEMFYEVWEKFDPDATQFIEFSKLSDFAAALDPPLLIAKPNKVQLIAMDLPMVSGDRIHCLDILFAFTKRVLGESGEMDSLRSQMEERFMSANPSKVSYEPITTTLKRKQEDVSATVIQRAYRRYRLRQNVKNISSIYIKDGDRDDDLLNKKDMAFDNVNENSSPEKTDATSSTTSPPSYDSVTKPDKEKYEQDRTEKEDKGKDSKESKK
T1 sequence (Q07699 19-218 partner): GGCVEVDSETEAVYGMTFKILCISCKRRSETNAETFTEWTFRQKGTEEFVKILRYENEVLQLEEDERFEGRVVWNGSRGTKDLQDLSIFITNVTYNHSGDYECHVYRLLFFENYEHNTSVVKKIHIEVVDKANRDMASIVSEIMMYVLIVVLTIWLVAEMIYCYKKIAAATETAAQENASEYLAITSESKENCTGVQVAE
Procedure, shortened: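 Competitive displacement of 100 pM [3H]compound (tritiated methyl analogue of formula (I)) from hNav1.7/β1 membranes, 18 h at room temperature in NaCl/Tris pH 7.4 buffer containing 0.01% BSA. 1 μM unlabeled compound set non-specific binding. Bound label quantified by scintillation after filtration; 4-parameter fit gave IC50.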

human NaV1.7 = target: T2, human NaV1.7 (Homo sapiens, UniProt Q15858); test: Patch voltage clamp electrophysiology assay (EP), NaV1.7; assay type: cell-based; details: HEK-293 cells stably expressing NaV1.7 with β1 subunit; whole-cell patch clamp, membrane potential −60 mV (inactivated state)
T2 construct: permanently transfected with an expression vector containing the full-length cDNA coding for the desired human sodium channel α-subunit; expressed in transfected cells; host or cells: HEK-293
T2 sequence (Q15858 1-1977 isoform Q15858-3): as the sequence (Q15858 1-1977 isoform Q15858-3) above
T2 sequence (Q07699 19-218 partner): as the sequence (Q07699 19-218 partner) above
Procedure, shortened: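 Percent block is the drop in sodium current after compound wash-on, measured by a test pulse following 20 ms at −150 mV from a −60 mV inactivating holding potential.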

NaV1.5 = target: T3, NaV1.5 (Homo sapiens, UniProt Q14524); test: Patch voltage clamp electrophysiology assay (EP), NaV1.5; assay type: cell-based; details: HEK-293 cells stably expressing NaV1.5 with β1 subunit, whole-cell patch clamp, membrane potential −60 mV (inactivated state)
T3 construct: permanently transfected with an expression vector containing the full-length cDNA coding for the desired human sodium channel α-subunit; expressed in transfected cells; host or cells: HEK-293
T3 sequence (Q14524 whole entry): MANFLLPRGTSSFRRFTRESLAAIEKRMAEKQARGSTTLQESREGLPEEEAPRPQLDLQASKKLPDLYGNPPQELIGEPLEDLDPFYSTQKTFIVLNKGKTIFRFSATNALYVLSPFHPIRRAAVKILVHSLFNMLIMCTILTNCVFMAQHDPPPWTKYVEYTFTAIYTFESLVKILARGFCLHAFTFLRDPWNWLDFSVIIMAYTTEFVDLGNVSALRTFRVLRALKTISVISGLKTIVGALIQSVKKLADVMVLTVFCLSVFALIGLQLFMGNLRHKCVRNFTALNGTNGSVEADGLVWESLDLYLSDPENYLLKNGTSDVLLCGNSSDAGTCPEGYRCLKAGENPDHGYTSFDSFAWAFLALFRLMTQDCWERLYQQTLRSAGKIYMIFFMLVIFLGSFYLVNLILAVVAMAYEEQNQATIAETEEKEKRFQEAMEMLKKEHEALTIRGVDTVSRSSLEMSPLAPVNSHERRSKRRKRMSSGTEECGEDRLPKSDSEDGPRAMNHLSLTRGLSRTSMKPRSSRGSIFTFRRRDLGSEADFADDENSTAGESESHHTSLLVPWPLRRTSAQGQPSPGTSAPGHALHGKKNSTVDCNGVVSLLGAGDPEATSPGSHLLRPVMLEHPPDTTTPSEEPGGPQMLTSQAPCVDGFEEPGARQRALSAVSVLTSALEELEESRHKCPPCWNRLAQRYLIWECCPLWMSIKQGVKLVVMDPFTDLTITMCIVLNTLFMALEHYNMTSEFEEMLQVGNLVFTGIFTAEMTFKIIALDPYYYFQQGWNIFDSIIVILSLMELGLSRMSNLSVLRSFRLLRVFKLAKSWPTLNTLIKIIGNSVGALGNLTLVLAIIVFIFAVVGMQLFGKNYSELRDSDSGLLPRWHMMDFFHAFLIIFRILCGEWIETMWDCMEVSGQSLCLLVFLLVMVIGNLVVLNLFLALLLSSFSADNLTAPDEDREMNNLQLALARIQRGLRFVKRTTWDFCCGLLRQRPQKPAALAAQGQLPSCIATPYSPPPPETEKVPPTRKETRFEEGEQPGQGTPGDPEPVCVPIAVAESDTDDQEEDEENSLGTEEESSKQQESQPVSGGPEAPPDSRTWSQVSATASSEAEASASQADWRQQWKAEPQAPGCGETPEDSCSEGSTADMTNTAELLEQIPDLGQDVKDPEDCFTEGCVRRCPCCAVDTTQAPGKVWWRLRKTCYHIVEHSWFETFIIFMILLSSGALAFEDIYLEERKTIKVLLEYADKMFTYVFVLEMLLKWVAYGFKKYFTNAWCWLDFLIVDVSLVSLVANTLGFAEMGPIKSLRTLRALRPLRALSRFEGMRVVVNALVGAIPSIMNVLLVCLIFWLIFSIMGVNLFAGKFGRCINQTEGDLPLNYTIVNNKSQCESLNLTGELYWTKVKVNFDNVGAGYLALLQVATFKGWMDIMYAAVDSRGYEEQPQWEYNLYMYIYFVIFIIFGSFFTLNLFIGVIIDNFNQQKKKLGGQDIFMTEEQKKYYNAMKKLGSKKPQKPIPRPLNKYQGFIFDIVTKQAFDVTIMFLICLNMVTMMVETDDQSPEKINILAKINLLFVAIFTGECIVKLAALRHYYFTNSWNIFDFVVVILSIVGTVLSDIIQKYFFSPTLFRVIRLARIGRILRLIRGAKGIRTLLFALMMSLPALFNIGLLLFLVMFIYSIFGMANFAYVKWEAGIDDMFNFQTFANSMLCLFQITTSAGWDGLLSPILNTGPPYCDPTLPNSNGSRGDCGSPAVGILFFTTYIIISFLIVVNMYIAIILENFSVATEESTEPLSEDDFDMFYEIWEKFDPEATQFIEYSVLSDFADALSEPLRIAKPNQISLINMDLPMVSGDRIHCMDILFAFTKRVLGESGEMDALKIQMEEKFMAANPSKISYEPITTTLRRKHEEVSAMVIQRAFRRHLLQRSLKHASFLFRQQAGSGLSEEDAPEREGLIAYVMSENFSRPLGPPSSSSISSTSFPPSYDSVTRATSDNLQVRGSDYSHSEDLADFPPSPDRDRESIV
Method: The following patch voltage clamp electrophysiology studies were performed on representative compounds of the invention using human embryonic kidney cells (HEK), permanently transfected with an expression vector containing the full-length cDNA coding for the desired human sodium channel α-subunit, grown in culture media containing 10% FBS, 1% PSG, and 0.5 mg/mL G418 at 37° C. with 5% CO2. […] NaV1.7 and NaV1.5 cDNAs (NM_002977 and AC137587; SCN5A, respectively) were stably expressed in HEK-293 cells. The β1 subunit was coexpressed in both the NaV1.7 and NaV1.5 cell lines.
Sodium currents were measured using the patch clamp technique in the whole-cell configuration using either a PatchXpress automated voltage clamp or manually using an Axopatch 200B (Axon Instruments) or Model 2400 (A-M systems) amplifier. The manual voltage clamp protocol was as follows: Borosilicate glass micropipettes were fire-polished to a tip diameter yielding a resistance of 2-4 Mohms in the working solutions. The pipette was filled with a solution comprised of: 5 mM NaCl, 10 mM CsCl, 120 mM CsF, 0.1 mM CaCl2, 2 mM MgCl2, 10 mM HEPES, 10 mM EGTA; and adjusted to pH 7.2 with CsOH. The external solution had the following composition: 140 mM NaCl, 5 mM KCl, 2 mM CaCl2, 1 mM MgCl2, 10 mM HEPES; and adjusted to pH 7.4 with NaOH. In some studies, the external sodium was reduced by equimolar replacement with choline. Osmolarity in the CsF internal and NaCl external solutions was adjusted to 300 mOsm/kg and 310 mOsm/kg with glucose, respectively. All recordings were performed at ambient temperature in a bath chamber with a volume of 150 μL. Control sodium currents were measured in 0.5% DMSO. Controls and representative compounds of the invention were applied to the recording chamber through a 4-pinch or 8-pinch valve bath perfusion system manufactured by ALA Scientific Instruments.
Series resistance compensation was applied (60-80%). […] All statistics in this study are given as mean±SD.
The membrane potential was maintained at a voltage where inactivation of the channel is complete (which was −60 mV for both NaV1.7 and NaV1.5). The voltage is then stepped back to a very negative (Vhold=[…]) voltage for 20 ms and then a test pulse is applied to quantify the compound block. […] The percent decrease in sodium current following wash-on of compound was taken as the percent block of sodium channels.

[1] = human, HEK-293 cells stably expressing human NaV1.5 with β1 subunit, pH 7.4

SMILES	pIC50 (hNav1.7)	pIC50 (human NaV1.7)	pIC50 (NaV1.5; read-out: Nav1.5)	pIC50 (NaV1.5; [1])
O=C(O)[C@H]1CSCN1C(=O)c1cc(C2CC2)c(OCC23CC4CC(CC(C4)C2)C3)cc1F [Example 50, (4S)-3-[4-(1-adamantylmethoxy)-5-cyclopropyl-2-fluoro-benzoyl]thiazolidine-4-carboxylic acid]	7.52	6.47	4.71	–
C[C@@]1(C(=O)O)CCCN1C(=O)c1cc(C2CC2)c(OCC23CC4CC(CC(C4)C2)C3)cc1F [Example 51, (S)-1-(4-((adamantan-1-yl)methoxy)-5-cyclopropyl-2-fluorobenzoyl)-2-methylpyrrolidine-2-carboxylic acid]	7.00	6.04	4.85	–
CC(C)(C)[C@H](NC(=O)c1cc(C2CC2)c(OCC23CC4CC(CC(C4)C2)C3)cc1F)C(=O)O [Example 52, (S)-2-(4-(adamantan-1-ylmethoxy)-5-cyclopropyl-2-fluorobenzamido)-3,3-dimethylbutanoic acid]	7.01	5.85	5.12	–
O=C(N[C@H](C(=O)O)C1CC1)c1cc(C2CC2)c(OCC2CCN(C(c3cc(Cl)cc(Cl)c3)C(F)(F)F)CC2)cc1F (stereo partly drawn) [Example 53, (2S)-2-cyclopropyl-2-(5-cyclopropyl-4-((1-(1-(3,5-dichlorophenyl)-2,2,2-trifluoroethyl)piperidin-4-yl)methoxy)-2-fluorobenzamido)acetic acid]	7.77	5.70	4.85	–
O=C(c1cc(C2CC2)c(OCC23CC4CC(CC(C4)C2)C3)cc1F)N1CCC[C@H]1c1nnn[nH]1 [Example 54, ((S)-2-(1H-tetrazol-5-yl)pyrrolidin-1-yl)(4-(adamantan-1-ylmethoxy)-5-cyclopropyl-2-fluorophenyl)methanone]	7.24	6.21	5.01	–
CC1(COc2cc(F)c(C(=O)N3CCC[C@H]3C(=O)O)cc2C2CC2)CCC2(CC1)CC2(F)F (stereo partly drawn) [Example 55, (5-cyclopropyl-4-((1,1-difluoro-6-methylspiro[2.5]octan-6-yl)methoxy)-2-fluorobenzoyl)-L-proline]	6.60	6.10	4.54	–
O=C(O)[C@@H]1CCCN1C(=O)c1cc(C2CC2)c(OCC23CCC(F)(CC2)CC3)cc1F [Example 56, (5-cyclopropyl-2-fluoro-4-((4-fluorobicyclo[2.2.2]octan-1-yl)methoxy)benzoyl)-L-proline]	6.39	5.74	–	≤ 4.52
C[C@@H](O)[C@H](NC(=O)c1cc(C2CC2)c(OCC23CC4CC(CC(C4)C2)C3)cc1F)C(=O)O [Example 57]	6.37	5.68	4.64	–
CC1(COc2cc(F)c(C(=O)N3CCC[C@H]3C(=O)O)cc2C2CC2)CCC2(CC1)CC2 [Example 58, (5-cyclopropyl-2-fluoro-4-((6-methylspiro[2.5]octan-6-yl)-methoxy)benzoyl)-L-proline]	7.08	6.20	4.68	–
CO[C@@H]1C[C@@H](C(=O)O)N(C(=O)c2cc(C3CC3)c(OCC34CC5CC(CC(C5)C3)C4)cc2F)C1 [Example 59, (2S,4R)-1-(4-((adamantan-1-yl)methoxy)-5-cyclopropyl-2-fluorobenzoyl)-4-methoxypyrrolidine-2-carboxylic acid]	7.47	6.26	4.59	–
O=C(O)[C@@H]1C[C@H]2C[C@H]2N1C(=O)c1cc(C2CC2)c(OCC23CC4CC(CC(C4)C2)C3)cc1F [Example 60, (1R, 3S, 5R)-2-(4-((adamantan-1-yl)methoxy)-5-cyclopropyl-2-fluorobenzoyl)-2-azabicyclo[3.1.0]hexane-3-carboxylic acid]	6.47	5.72	4.89	–
O=C(O)[C@@H]1[C@H](O)CCN1C(=O)c1cc(C2CC2)c(OCC23CC4CC(CC(C4)C2)C3)cc1F [Example 62, (2S, 3R)-1-(4-((adamantan-1-yl)methoxy)-5-cyclopropyl-2-fluorobenzoyl)-3-hydroxypyrrolidine-2-carboxylic acid]	6.80	5.96	4.55	–
O=C(O)[C@@H]1[C@H](F)CCN1C(=O)c1cc(C2CC2)c(OCC23CC4CC(CC(C4)C2)C3)cc1F [Example 63, (2R, 3R)-1-(4-((adamantan-1-yl)methoxy)-5-cyclopropyl-2-fluorobenzoyl)-3-fluoropyrrolidine-2-carboxylic acid]	6.77	6.01	4.74	–
O=C(O)[C@@H]1[C@@H](F)CCN1C(=O)c1cc(C2CC2)c(OCC23CC4CC(CC(C4)C2)C3)cc1F [Example 64, (2R,3S)-1-(4-((adamantan-1-yl)methoxy)-5-cyclopropyl-2-fluorobenzoyl)-3-fluoropyrrolidine-2-carboxylic acid]	7.22	6.10	5.07	–
O=C(O)C1CCN(C(=O)c2cc(C3CC3)c(OCC34CC5CC(CC(C5)C3)C4)cc2F)C1 (stereo not drawn) [Example 65, 1-(4-(adamantan-1-ylmethoxy)-5-cyclopropyl-2-fluorobenzoyl)pyrrolidine-3-carboxylic acid]	≤ 5.00	5.28	4.64	–
CC(C)[C@H](NC(=O)c1cc(C2CC2)c(OCC23CC4CC(CC(C4)C2)C3)cc1F)C(=O)O [Example 66, (S)-2-(4-(adamantan-1-ylmethoxy)-5-cyclopropyl-2-fluorobenzamido)-3-methylbutanoic acid]	7.15	6.10	5.09	–
CC(C)[C@@H](C(=O)O)N(C)C(=O)c1cc(C2CC2)c(OCC23CC4CC(CC(C4)C2)C3)cc1F [Example 67, N-(4-(adamantan-1-ylmethoxy)-5-cyclopropyl-2-fluorobenzoyl)-N-methyl-L-valine]	6.00	5.52	5.12	–
CC1(C)CCC(COc2cc(F)c(C(=O)N3CCC[C@H]3C(=O)O)cc2C2CC2)CC1 [Example 68, (S)-1-(5-cyclopropyl-4-((4,4-dimethylcyclohexyl)methoxy)-2-fluorobenzoyl)pyrrolidine-2-carboxylic acid]	7.00	6.28	4.72	–
O=C(O)[C@@H]1CCCN1C(=O)c1cc(C2CC2)c(OCC23CCCCC2C3)cc1F (stereo partly drawn) [Example 69, (4-(bicyclo[4.1.0]heptan-1-ylmethoxy)-5-cyclopropyl-2-fluorobenzoyl)-L-proline]	6.77	6.28	–	≤ 4.52
O=C(O)[C@@H]1CCCN1C(=O)c1cc(C2CC2)c(OC2C3CC4CC(C3)CC2C4)cc1F (stereo partly drawn) [Example 70, (S)-1-(4-(adamantan-2-yloxy)-5-cyclopropyl-2-fluorobenzoyl)pyrrolidine-2-carboxylic acid]	6.51	5.80	–	≤ 4.52
O=C(O)[C@@H]1CCCN1C(=O)c1cc(F)c(OCC23CC4CC(CC(C4)C2)C3)cc1F [Example 71, (4-(adamantan-1-ylmethoxy)-2,5-difluorobenzoyl)-L-proline]	5.21	4.96	–	≤ 4.52
O=C(O)C1COCCN1C(=O)c1cc(C2CC2)c(OCC23CC4CC(CC(C4)C2)C3)cc1F (stereo not drawn) [Example 72, 4-(4-(adamantan-1-ylmethoxy)-5-cyclopropyl-2-fluorobenzoyl)morpholine-3-carboxylic acid]	5.44	5.25	4.62	–
